# Laboratory results from patent US20240009269A1 (priority 2020, published 2024).
# Like-named read-outs stand apart in the source and are kept apart here.
# Assays:
# [1] = tested on: mice; details: intraperitoneal administration; cited from earlier work
# [2] = tested on: human cortical neurons (HCNs, HCN-2 cells)
# [3] = Solubility stated in text; format: physicochemical; details: vs 1-10 μM
# [4] = tested on: dhBMECs in microvessels; assay: Analysis of cell behavior in tissue-engineered microvessels; format: cell-based, human
# Source text: To monitor cell dynamics, cell loss and proliferation events were counted manually. Rates of cell loss (% h^−1), division (% h^−1), turnover (% h^−1), and cell loss at the site of a focal leak (%) were quantified from phase contrast imaging sequences, as reported previously. Briefly, the total number of endothelial cells was counted manually for each microvessel plane, utilizing a region approximately 100 μm wide corresponding to about a fifth of the channel circumference. Cell loss was identified by observing the removal of a cell from the microvessel. Cell loss from the monolayer occurred through two processes: (1) apoptotic loss, in which a cell constricts, releases its contents into the vessel lumen, which is then removed from the monolayer over a period of 20-60 minutes, and (2) non-apoptotic loss, in which a cell swells and disappears from the monolayer over a period of 2-6 minutes. Cell division was identified by observing cell compression, alignment of chromosomes, and the formation of daughter cells. The rate of turnover (% h^−1) is the difference between the rate of cell division and the rate of cell loss. A cell loss event was identified to be at the site of a focal leak if it occurred within <50 μm and <4 minutes of the occurrence of a focal leak. For a limited set of experiments, the WTC iPSC line [Kreitzer, F. R., et al., Am J Stem Cells, 2013. 2(2): p. 119-31] with GFP-tagged zona occludens-1 (Allen Cell Institute) was used to facilitate live-cell monitoring of tight junction organization.
# Confocal z-stacks (0.4 μm in thickness) at 40× magnification were obtained on a swept field confocal microscope system (Prairie Technologies). Illumination was provided by an MLC 400 monolithic laser combiner (Keysight Technologies). Complete reconstruction of the microvessel lumen required approximately four hundred slices. Confocal imaging was conducted before, during, and after exposure to 50 μM·minute melittin treatment.
# [5] = tested on: dhBMECs; assay: Cytotoxicity assay (EthD1/Hoechst live-cell imaging), dhBMECs; format: cell-based, human; details: for exposure time maintaining high cell viability: phase diagrams of dhBMECs and HCNs, 98% viability
# Method: DhBMECs were seeded on polystyrene 96-well plate, coated with 25 μg mL^−1 fibronectin and 50 μg mL^−1 collagen IV, at 2×10^5 cells cm^−2 in BBB induction medium. On day 1, the cells were washed twice with BBB maintenance medium with gentle pipetting up-and-down to remove non-adherent cells and incubated in the medium overnight. HCN2 cells were seeded in the tissue culture-treated 96-well plate at 3×10^3 cell cm^−2 in HCN2 cell culture medium and cultured for two days at 37° C., 5% CO2, with the medium change on day 1 after the seeding. The cytotoxicity assay was performed on day 2 after seeding. Briefly, in the cytotoxicity assay, the cells were incubated with two dyes: a membrane-impermeable Ethidium homodimer-1 (EthD1, L3224, Thermo Fisher Scientific) to assess cell viability, and Hoechst 33342 nuclear stain (Cat. No. 62249, Thermo Fisher Scientific) and imaged on an epifluorescence microscope. In more detail, the cells were washed with BBB maintenance medium followed by incubation with 200 μL of 2 μg mL^−1 Hoechst 33342 and 10 μM EthD1 solution for 15-30 minutes at 37° C., 5% CO2. After the incubation, 100 μL of the solutions were replaced with Hoechst 33342 and EthD1 solutions containing melittin using a multichannel pipettor, resulting in final 0.75 μM, 5 μM, and 10 μM melittin concentrations. After the addition of treatment solutions, large 6×6 epifluorescence images were collected every ˜3.5 minutes per condition using a 20×objective and a Nikon Eclipse TiE microscope, equipped with 37° C. chamber, for 60-90 minutes. Out-of-focus portions of images were manually blacked out using ImageJ. Afterwards, the images were analyzed using a custom pipeline in image analysis software CellProfiler 3.1.8 to count Hoechst-positive objects (all cells) and EhtD1-positive objects (dead cells). The fraction of viable cells (F) was calculated using equation 2 below:
# where N(EthD1)i is the number of EthD1-positive objects at time i, N(EthD1)o is the number of EthD1-positive objects at time t=2 minutes (initial time of imaging), N(Hoechst)max is the maximum number of Hoechst-positive objects counted in an image over the imaging time-course. For dhBMECs, the experiments were repeated a total of five times with two independent iPSC differentiations. In the experiment, all media removal was done by gentle pipetting and not aspiration by vacuum. For HCN2 cells, the experiments were performed a total of three times on day 2 and day 3 after seeding.
# [6] = 5 μM melittin, continuous exposure
structure (smiles),measurement,setting,value
CC[C@H](C)[C@H](NC(=O)CN)C(=O)NCC(=O)N[C@@H](C)C(=O)N[C@H](C(=O)N[C@@H](CC(C)C)C(=O)N[C@@H](CCCCN)C(=O)N[C@H](C(=O)N[C@@H](CC(C)C)C(=O)N[C@H](C(=O)N[C@H](C(=O)NCC(=O)N[C@@H](CC(C)C)C(=O)N1CCC[C@H]1C(=O)N[C@@H](C)C(=O)N[C@@H](CC(C)C)C(=O)N[C@H](C(=O)N[C@@H](CO)C(=O)N[C@@H](Cc1c[nH]c2ccccc12)C(=O)N[C@H](C(=O)N[C@@H](CCCCN)C(=O)N[C@@H](CCCNC(=N)N)C(=O)N[C@@H](CCCCN)C(=O)N[C@@H](CCCNC(=N)N)C(=O)N[C@@H](CCC(N)=O)C(=O)N[C@@H](CCC(N)=O)C(N)=O)[C@@H](C)CC)[C@@H](C)CC)[C@@H](C)O)[C@@H](C)O)C(C)C)C(C)C [melittin],LD50,[1],3.2 mg/kg
same,time high viability (≥98%) is maintained,[2]; 0.75 μM melittin,~23 min
same,time for which viability is largely unaffected,[2]; 5 μM melittin,about 20 minutes
same,time high viability (≥98%) is maintained,[2]; 5 μM melittin,~12 min
same,time at which the viability reached 50% (τ1/2),[2]; [6],~30 min
same,time high viability (≥98%) is maintained,[2]; 10 μM melittin,~12 min
same,decrease of viability,[2]; dose of 100 μM·minute,< 2%
same,solubility relative to the concentrations for membrane activity,[3],more than 30 fold
same,cell division rate,[4]; across melittin doses 3-100 μM·minute,about 1 % h^−1
same,cell loss rate following melittin exposure,[4]; doses 3-100 μM·minute,dose-dependent
same,turnover of dhBMECs (division rate minus loss rate),[4]; doses 3-100 μM·minute,negative
same,"cell response, GFP-tagged ZO1 dhBMEC microvessels",[4]; high melittin doses (100 μM·min),cells contracted
same,exposure time maintaining high cell viability,[5]; 0.75 μM melittin,≥ 20 min
same,time for which viability is largely unaffected,[5]; 5 μM melittin,about 20 minutes
same,time at which the viability reached 50% (τ1/2),[5]; [6],~40 min
same,exposure time maintaining high cell viability,[5]; 10 μM melittin,≤ 10 min
same,decrease of viability,[5]; dose of 100 μM·minute,< 2%
